# Measured values published in patent publication US11944605B2, “Rapamycin analogs and uses thereof” (Janssen Pharmaceutica NV, priority 2018, dated 2024).
# “Also recorded” adds a separate entry of the source.
# Legend:
# [1] = system: pAKT (p-Akt 1/2/3 (Ser473)) in MCF-7 cells; experiment: AlphaLISA Ultra pAKT Assay; assay type: cell-based; conditions: Homo sapiens, 1.5 h; MCF7 cells, 90 min
# Description: AlphaLISA Ultra pAKT Assay
# 1. MCF-7 cells in Corning 3701 plate and incubate for 20˜24 hour.
# 16,000˜20,000 cells will be seeded in 36 μL medium per well.
# 2. Change the culture medium with fresh medium and incubate for another 90 minutes.
# 3. […]
# 4. Aspirate […] by HAMILTON, 10 μL rest per well.
# 5. Add 10 μL 2× lysis buffer using HAMILTON; total volume in wells is 20 μL. Allow cells to shake for 30 min. Cover plate by plastic foil and store plate at −80° C. up to analysis.
# 6. Thaw cell lysate at RT and transfer 10 ul lysate to assay plate (Optiplate-384).
# 7. Add 5 μL acceptor beads into assay plate and incubation for 2 hours
# 8. Add 5 μL donor beads and incubation for 2 hours
# 9. Count the plate by EnSpire Multimode Plate Reader
# [2] = system: pS6K1 (p-p70 S6 Kinase (Thr389)) in MCF-7 cells; experiment: AlphaLISA Ultra pS6K1 Assay; assay type: cell-based; conditions: Homo sapiens, 1.5 h; MCF7 cells, 90 min
# Procedure, shortened: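 AlphaLISA Ultra read-out (acceptor beads 2 h, then donor beads 2 h) on thawed lysates of MCF-7 cells. Cells had 20–24 h after seeding and a 2 h medium change, then 90 min of compound exposure at 0.5% final DMSO, with lysates stored at −80 °C.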
# [3] = Solubility in 100 mM phosphate buffer (pH 7.4); assay type: physicochemical; conditions: pH 7.4, aqueous buffer
# Source text: The compound numbers correspond to the compound numbers in Table 1.
# mTORC1 over mTORC2 = experiment: mTORC1 selectivity over mTORC2 at 24 hrs (Western blot based pS6K1 and pAKT assay); assay type: cell-based; conditions: 24 hrs
# [4] = system: mTORC1 pathway (pS6K1 T389) in PC3 cells; experiment: Western blot, mTORC1 pathway (pS6K1) in PC3 cells; assay type: cell-based; conditions: PC3 cells, 24 hours
# Description: (§1) Western Blot Based pS6K1 and pAKT Assay at 24 and 48 Hour Timepoints
# (§2) 1. Seed six well plate with 500,000 PC3 cells per well and incubate for 20˜24 hour.
# (§3) 2. Add compounds into the cell plate. Incubate for 24 to 48 hours.
# (§4) 4. Plate is placed on ice and the media is removed via aspiration. The wells are washed with 1 mL of 1× PBS and then fully aspirated.
# (§5) 5. 110 μL of 1% Triton Lysis Buffer is added and each well is scraped vigorously.
# (§6) 6. Cell homogenates are transferred to 1.5 mL eppendorf tubes on ice and spun down at 4° C. for 10 minutes at 10,000 rpm.
# (§7) 9. The membranes were washed 3× with TBS-T with a 5 minute incubation between each wash then incubated with secondary antibody (LiCor IRDye 800 Donkey Anti Rabbit) for at least 30 minutes.
# (§8) 10. The membranes were washed 3× with TBS-T with a 5 minute incubation between each wash.
# (§9) 11. The gels were then incubated for 5 minutes with PBS at room temperature then imaged using a Li-Cor.
# (§10) The methods employed were substantially similar to those described above. Compounds were evaluated in PC3 cells, Jurkat cells, wild-type mouse embryotic fibroblast (MEF) cells, tuberous sclerosis 2 (TSC2) negative (TSC −/−) MEF cells, and tuberous sclerosis 2 (TSC2) positive (TSC +/+) MEF cells. Cells were incubated with compounds of the present invention for various time periods (e.g., 5 minutes, 15 minutes, 30 minutes, 90 minutes, 24 hours, or 48 hours), and evaluated according to known methodologies, such as those herein described.
# [5] = system: mTORC2 pathway (Akt phosphorylation) in PC3 cells; experiment: Western blot, mTORC2 pathway (pAkt) in PC3 cells; assay type: cell-based; conditions: 24 hours
# Description: as §1, §2, §3, §4, §5, §6, §7, §8, §9, §10
Structure (SMILES),IC50 [1] [nM],IC50 [2] [nM],solubility [3] [µM],mTORC1 selective @ 24 hrs (mTORC1 over mTORC2),inhibition of the mTORC1 pathway [4],inhibition of mTORC2 (Akt phosphorylation) [5]
CO[C@@H]1C[C@H](C[C@@H](C)[C@@H]2CC(=O)[C@H](C)/C=C(\C)[C@@H](O)[C@@H](OC)C(=O)[C@H](C)C[C@H](C)/C=C/C=C/C=C(\C)[C@@H](OCCOCCOCCO)C[C@@H]3CC[C@@H](C)[C@@](O)(O3)C(=O)C(=O)N3CCCC[C@H]3C(=O)O2)CC[C@H]1O [Compound I-29],≥ 100,< 0.1,30 to 60,–,–,–
CO[C@@H]1C[C@H](C[C@@H](C)[C@@H]2CC(=O)[C@H](C)/C=C(\C)[C@@H](O)[C@@H](OC)C(=O)[C@H](C)C[C@H](C)/C=C/C=C/C=C(\C)[C@H](OCCOCCOCCO)C[C@@H]3CC[C@@H](C)[C@@](O)(O3)C(=O)C(=O)N3CCCC[C@H]3C(=O)O2)CC[C@H]1O [Compound I-30],≥ 100,0.1 to 1,> 60,–,–,–
CO[C@@H]1C[C@H](C[C@@H](C)[C@@H]2CC(=O)[C@H](C)/C=C(\C)[C@@H](O)[C@@H](OC)C(=O)[C@H](C)C[C@H](C)/C=C/C=C/C=C(\C)C(OCC3COCCOCCOCCOCCOCCO3)C[C@@H]3CC[C@@H](C)[C@@](O)(O3)C(=O)C(=O)N3CCCC[C@H]3C(=O)O2)CC[C@H]1O (stereo partly shown) [I-1],≥ 100,0.1 to 1,30 to 60,YES,–,–
CO[C@@H]1C[C@H](C[C@@H](C)[C@@H]2CC(=O)[C@H](C)/C=C(\C)[C@@H](O)[C@@H](OC)C(=O)[C@H](C)C[C@H](C)/C=C/C=C/C=C(\C)C(OCC3COCCOCCOCCO3)C[C@@H]3CC[C@@H](C)[C@@](O)(O3)C(=O)C(=O)N3CCCC[C@H]3C(=O)O2)CC[C@H]1O (stereo partly shown) [I-10],≥ 100,< 0.1,–,YES,–,–
"CO[C@@H]1C[C@H](C[C@@H](C)[C@@H]2CC(=O)[C@H](C)/C=C(\C)[C@@H](O)[C@@H](OC)C(=O)[C@H](C)C[C@H](C)/C=C/C=C/C=C(\C)C(OCCOCCOCCOCCO)C[C@@H]3CC[C@@H](C)[C@@](O)(O3)C(=O)C(=O)N3CCCC[C@H]3C(=O)O2)CC[C@H]1OCCO (stereo partly drawn) [I-22, (21E,23E,25E,26E,38R,39S,40R,41R,42S,45S,47S,49R,50R,59R)-49, 59-dihydroxy-46-[2-[2-[2-(2-hydroxyethoxy)ethoxy]ethoxy]ethoxy]-47-[(1R)-2-[(1S,2R, 3R)-3-(2-hydroxyethoxy)-2-methoxy-cyclohexyl]-1-methyl-ethyl]-50-methoxy-38,39,40,41,51,52-hexamethyl-70, 71-dioxa-60-azatricyclohexatriaconta-21,23,25(51),26(52)-tetraene-53, 54,55,56,57-pentone]",≥ 100,0.1 to 1,–,YES,–,–
"CO[C@@H]1C[C@H](C[C@@H](C)[C@@H]2CC(=O)[C@H](C)/C=C(\C)[C@@H](O)[C@@H](OC)C(=O)[C@H](C)C[C@H](C)/C=C/C=C/C=C(\C)C(OCCOCCO)C[C@@H]3CC[C@@H](C)[C@@](O)(O3)C(=O)C(=O)N3CCCC[C@H]3C(=O)O2)CC[C@H]1OCCO (stereo partly drawn) [I-23, (21E,23E,25E,26E,34R,35S,36R,37R,38S,41S,43S,45R,46R,55R)-45,55-dihydroxy-42-[2-(2-hydroxyethoxy)ethoxy]-43-[(1R)-2-[(1S,2R,3R)-3-(2-hydroxyethoxy)-2-methoxy-cyclohexyl]-1-methyl-ethyl]-46-methoxy-34, 35,36,37,47,48-hexamethyl-66,67-dioxa-56-azatricyclohexatriaconta-21, 23,25(47),26(48)-tetraene-49,50,51,52,53-pentone]",≥ 100,< 0.1,–,YES,–,–
"CO[C@@H]1C[C@H](C[C@@H](C)[C@@H]2CC(=O)[C@H](C)/C=C(\C)[C@@H](O)[C@@H](OC)C(=O)[C@H](C)C[C@H](C)/C=C/C=C/C=C(\C)C(OCC(O)CO)C[C@@H]3CC[C@@H](C)[C@@](O)(O3)C(=O)C(=O)N3CCCC[C@H]3C(=O)O2)CC[C@H]1O (stereo partly drawn) [I-25, (21E,23E,25E,26E,30R,31S,32R,33R,35R,37S,39S,40S,41R,42R,52S)-39-(2,3-dihydroxypropoxy)-41, 52-dihydroxy-40-[(1S)-2-[(1S,3R,4R)-4-hydroxy-3-methoxy-cyclohexyl]-1-methyl-ethyl]-42-methoxy-30, 31,32,33,43,44-hexamethyl-64,65-dioxa-53-azatricyclohexatriaconta-21, 23,25(43),26(44)-tetraene-45,46,47,48,49-pentone]",≥ 100,0.1 to 1,–,YES,–,–
"CO[C@@H]1C[C@H](C[C@@H](C)[C@@H]2CC(=O)[C@H](C)/C=C(\C)[C@@H](O)[C@@H](OC)C(=O)[C@H](C)C[C@H](C)/C=C/C=C/C=C(\C)C(OCCOCCOCCOCCOCCOCCOCCOCCOCCOCCOCCO)C[C@@H]3CC[C@@H](C)[C@@](O)(O3)C(=O)C(=O)N3CCCC[C@H]3C(=O)O2)CC[C@H]1O (stereo partly drawn) [I-96, (21E,23E,25E,26E,50R,51S,52R,53R,55S,57S,60S,61R,62R,71R)-61, 71-dihydroxy-59-[2-[2-[2-[2-[2-[2-[2-[2-[2-[2-(2-hydroxyethoxy)ethoxy]ethoxy]ethoxy]ethoxy]ethoxy]ethoxy]ethoxy]ethoxy]ethoxy]ethoxy]-60-[(1R)-2-[(1S,3R,4R)-4-hydroxy-3-methoxy-cyclohexyl]-1-methyl-ethyl]-62-methoxy-50, 51,52,53,63,64-hexamethyl-82,83-dioxa-72-azatricyclohexatriaconta-21, 23,25(63),26(64)-tetraene-65,66,67,68,69-pentone]",–,0.1 to 1,–,YES,strong inhibition,do not inhibit
"CO[C@@H]1C[C@H](C[C@@H](C)[C@@H]2CC(=O)[C@H](C)/C=C(\C)[C@@H](O)[C@@H](OC)C(=O)[C@H](C)C[C@H](C)/C=C/C=C/C=C(\C)C(OCCOCCOCCOCCOCCOCCOCCO)C[C@@H]3CC[C@@H](C)[C@@](O)(O3)C(=O)C(=O)N3CCCC[C@H]3C(=O)O2)CC[C@H]1OCCO (stereo partly drawn) [I-99, (21E,23E,25E,26E,44R,45S,46R,47R,49S,51S,54S,55R,56R,65R)-55, 65-dihydroxy-53-[2-[2-[2-[2-[2-[2-(2-hydroxyethoxy)ethoxy]ethoxy]ethoxy]ethoxy]ethoxy]ethoxy]-54-[(1R)-2-[(1S, 3R,4R)-4-(2-hydroxyethoxy)-3-methoxy-cyclohexyl]-1-methyl-ethyl]-56-methoxy-44, 45,46,47,57,58-hexamethyl-76,77-dioxa-66-azatricyclohexatriaconta-21, 23,25(57),26(58)-tetraene-59,60,61,62,63-pentone]",–,0.1 to 1,–,YES,appreciable concentration dependent inhibition; also recorded: moderate concentration dependent inhibition,do not inhibit
"CO[C@@H]1C[C@H](C[C@@H](C)[C@@H]2CC(=O)[C@H](C)/C=C(\C)[C@@H](O)[C@@H](OC)C(=O)[C@H](C)C[C@H](C)/C=C/C=C/C=C(\C)C(OCC(COCCC#N)(COCCC#N)COCCC#N)C[C@@H]3CC[C@@H](C)[C@@](O)(O3)C(=O)C(=O)N3CCCC[C@H]3C(=O)O2)CC[C@H]1O (stereo partly drawn) [I-101, 3-[2,2-bis(2-cyanoethoxymethyl)-3-[[(21E, 23E,25E,26E,41R,42S,43R,44R,46S,48S,51S,52R,53R,62R)-52,62-dihydroxy-51-[(1R)-2-[(1S, 3R,4R)-4-hydroxy-3-methoxy-cyclohexyl]-1-methyl-ethyl]-53-methoxy-41, 42,43,44,54,55-hexamethyl-56,57,58,59,60-pentaoxo-76,77-dioxa-67-azatricyclohexatriaconta-21, 23,25(54),26(55)-tetraen-50-yl]oxy]propoxy]propanenitrile]",–,0.1 to 1,–,YES,strong inhibition; also recorded: appreciable concentration dependent inhibition; also recorded: moderate concentration dependent inhibition,do not inhibit
